Assay results: the NIST ThermoML archive (doi:10.1007/s10765-007-0346-0)

Columns and labels:
[1] = 101.33 kPa, Liquid, Capillary tube (Ostwald / Ubbelohde) method
[2] = xn = mol fraction of the nth substance listed; conditions: 101 kPa, Liquid, Capillary tube (Ostwald / Ubbelohde) method

COC(C)(C)C [2-methoxy-2-methylpropane]
[1]
Conditions	kinematic viscosity [m2/s]
283.15 K	5.191e-07
298.15 K	4.529e-07
313.15 K	3.961e-07

COC(C)(C)C [2-methoxy-2-methylpropane] + CCC(C)CC
[2], x1 = 1
Conditions	kinematic viscosity [m2/s]
283.15 K	5.191e-07
298.15 K	4.529e-07
313.15 K	3.961e-07

COC(C)(C)C [2-methoxy-2-methylpropane] + CCCCCC
kinematic viscosity [m2/s], [2]
Conditions	283.15 K	298.15 K	313.15 K
x1 = 0.0479	5.097e-07	4.478e-07	4.017e-07
x1 = 0.0974	5.074e-07	4.465e-07	3.994e-07
x1 = 0.1983	5.034e-07	4.442e-07	3.96e-07
x1 = 0.2988	5.004e-07	4.427e-07	3.932e-07
x1 = 0.3979	4.99e-07	4.418e-07	3.91e-07
x1 = 0.4975	4.99e-07	4.413e-07	3.897e-07
x1 = 0.5974	4.996e-07	4.419e-07	3.895e-07
x1 = 0.6968	5.025e-07	4.431e-07	3.895e-07
x1 = 0.7911	5.059e-07	4.45e-07	3.913e-07
x1 = 0.8976	5.125e-07	4.484e-07	3.926e-07
x1 = 0.9486	5.147e-07	4.505e-07	3.94e-07

COC(C)(C)C [2-methoxy-2-methylpropane] + CCCCCCC
kinematic viscosity [m2/s], [2]
Conditions	283.15 K	298.15 K	313.15 K
x1 = 0.0431	6.606e-07	5.683e-07	4.926e-07
x1 = 0.0987	6.512e-07	5.599e-07	4.862e-07
x1 = 0.1892	6.353e-07	5.461e-07	4.767e-07
x1 = 0.2958	6.168e-07	5.3e-07	4.658e-07
x1 = 0.3844	6.03e-07	5.169e-07	4.569e-07
x1 = 0.4986	5.845e-07	5.012e-07	4.454e-07
x1 = 0.6007	5.7e-07	4.881e-07	4.347e-07
x1 = 0.6999	5.567e-07	4.777e-07	4.246e-07
x1 = 0.7998	5.421e-07	4.68e-07	4.144e-07
x1 = 0.8997	5.298e-07	4.604e-07	4.047e-07
x1 = 0.9499	5.241e-07	4.566e-07	4.004e-07

CCC(C)CC [3-methylpentane]
[1]
Conditions	kinematic viscosity [m2/s]
283.15 K	4.928e-07
298.15 K	4.366e-07
313.15 K	3.881e-07

CCC(C)CC [3-methylpentane] + CC(C)OC(C)C
kinematic viscosity [m2/s], [2]
Conditions	283.15 K	298.15 K	313.15 K
x2 = 0	4.928e-07	4.366e-07	3.881e-07
x2 = 0.0498	4.914e-07	4.364e-07	3.872e-07
x2 = 0.1011	4.903e-07	4.355e-07	3.861e-07
x2 = 0.201	4.886e-07	4.348e-07	3.847e-07
x2 = 0.3018	4.877e-07	4.342e-07	3.837e-07
x2 = 0.4014	4.871e-07	4.339e-07	3.83e-07
x2 = 0.501	4.876e-07	4.338e-07	3.827e-07
x2 = 0.5993	4.883e-07	4.344e-07	3.831e-07
x2 = 0.6973	4.897e-07	4.352e-07	3.833e-07
x2 = 0.8014	4.912e-07	4.366e-07	3.842e-07
x2 = 0.8997	4.934e-07	4.377e-07	3.849e-07
x2 = 0.9501	4.947e-07	4.385e-07	3.854e-07

CCC(C)CC [3-methylpentane] + CCCCOCCCC
kinematic viscosity [m2/s], [2]
Conditions	283.15 K	298.15 K	313.15 K
x2 = 0.0498	5.151e-07	4.505e-07	4.026e-07
x2 = 0.1011	5.383e-07	4.655e-07	4.176e-07
x2 = 0.1884	5.796e-07	4.975e-07	4.427e-07
x2 = 0.2989	6.32e-07	5.415e-07	4.712e-07
x2 = 0.4033	6.843e-07	5.846e-07	5.031e-07
x2 = 0.4999	7.344e-07	6.244e-07	5.374e-07
x2 = 0.5992	7.877e-07	6.669e-07	5.73e-07
x2 = 0.7016	8.46e-07	7.116e-07	6.088e-07
x2 = 0.799	9.03e-07	7.548e-07	6.442e-07
x2 = 0.9001	9.657e-07	8.021e-07	6.804e-07
x2 = 0.9496	9.979e-07	8.257e-07	6.992e-07

CCC(C)CC [3-methylpentane] + COC(C)(C)C
kinematic viscosity [m2/s], [2]
Conditions	283.15 K	298.15 K	313.15 K
x2 = 0.048	4.915e-07	4.361e-07	3.87e-07
x2 = 0.0967	4.906e-07	4.357e-07	3.859e-07
x2 = 0.1961	4.893e-07	4.348e-07	3.843e-07
x2 = 0.2982	4.895e-07	4.347e-07	3.836e-07
x2 = 0.3995	4.906e-07	4.351e-07	3.834e-07
x2 = 0.4983	4.923e-07	4.361e-07	3.836e-07
x2 = 0.5992	4.954e-07	4.379e-07	3.85e-07
x2 = 0.6984	4.995e-07	4.406e-07	3.863e-07
x2 = 0.7978	5.048e-07	4.435e-07	3.888e-07
x2 = 0.8996	5.113e-07	4.478e-07	3.918e-07
x2 = 0.9491	5.145e-07	4.502e-07	3.937e-07

CC(C)OC(C)C [diisopropyl ether]
[1]
Conditions	kinematic viscosity [m2/s]
283.15 K	4.959e-07
298.15 K	4.392e-07
313.15 K	3.861e-07

CC(C)OC(C)C [diisopropyl ether] + CCC(C)CC
[2], x1 = 1
Conditions	kinematic viscosity [m2/s]
283.15 K	4.959e-07
298.15 K	4.392e-07
313.15 K	3.861e-07

CC(C)OC(C)C [diisopropyl ether] + CCCCCC
kinematic viscosity [m2/s], [2]
Conditions	283.15 K	298.15 K	313.15 K
x1 = 0.0523	5.094e-07	4.477e-07	4.011e-07
x1 = 0.0915	5.076e-07	4.467e-07	3.994e-07
x1 = 0.189	5.031e-07	4.446e-07	3.961e-07
x1 = 0.3016	4.99e-07	4.426e-07	3.929e-07
x1 = 0.398	4.963e-07	4.409e-07	3.907e-07
x1 = 0.4998	4.944e-07	4.397e-07	3.889e-07
x1 = 0.6007	4.931e-07	4.383e-07	3.874e-07
x1 = 0.6975	4.932e-07	4.381e-07	3.866e-07
x1 = 0.7976	4.934e-07	4.381e-07	3.859e-07
x1 = 0.8959	4.945e-07	4.386e-07	3.856e-07
x1 = 0.9432	4.953e-07	4.385e-07	3.86e-07

CC(C)OC(C)C [diisopropyl ether] + CCCCCCC
kinematic viscosity [m2/s], [2]
Conditions	283.15 K	298.15 K	313.15 K
x1 = 0.0508	6.578e-07	5.658e-07	4.91e-07
x1 = 0.1002	6.473e-07	5.567e-07	4.831e-07
x1 = 0.1986	6.265e-07	5.387e-07	4.719e-07
x1 = 0.2973	6.068e-07	5.218e-07	4.61e-07
x1 = 0.3992	5.88e-07	5.055e-07	4.498e-07
x1 = 0.4991	5.693e-07	4.9e-07	4.385e-07
x1 = 0.5979	5.533e-07	4.779e-07	4.273e-07
x1 = 0.7009	5.372e-07	4.679e-07	4.166e-07
x1 = 0.8008	5.215e-07	4.588e-07	4.058e-07
x1 = 0.8954	5.091e-07	4.496e-07	3.96e-07
x1 = 0.95	5.016e-07	4.443e-07	3.909e-07

CCCCCCC [heptane]
[1]
Conditions	kinematic viscosity [m2/s]
283.15 K	6.697e-07
298.15 K	5.754e-07
313.15 K	4.986e-07

CCCCCCC [heptane] + CC(C)OC(C)C
[2], x2 = 0
Conditions	kinematic viscosity [m2/s]
283.15 K	6.697e-07
298.15 K	5.754e-07
313.15 K	4.986e-07

CCCCCC [hexane]
[1]
Conditions	kinematic viscosity [m2/s]
283.15 K	5.125e-07
298.15 K	4.493e-07
313.15 K	4.039e-07

CCCCCC [hexane] + CC(C)OC(C)C
[2], x2 = 0
Conditions	kinematic viscosity [m2/s]
283.15 K	5.125e-07
298.15 K	4.493e-07
313.15 K	4.039e-07
